# Measured values from PMC5584945, “Evaluation of robenidine analog NCL195 as a novel broad-spectrum antibacterial agent” (PLoS ONE, 2017).
# Tested on: S. pneumoniae
# Test: MIC, broth micro-dilution (CLSI)
# Assay type: cell-based, Streptococcus pneumoniae
# Details: for MIC90 / MIC / MIC50: Streptococcus pneumoniae
# [1] = S1 Table isolates, 5% FBS + 3% washed RBC
# [2] = ATCC6303, ATCC 6303 (serotype 3), 5% FBS + 3% washed RBC
# [3] = D39/D39LUX (serotype 2), 5% FBS
Compound,MIC range [1],MIC90 (21 isolates),"MIC (A66.1 (serotype 3), 5% FBS)",MIC [2],MIC [3],"MIC (EF3030 (serotype 19F), 5% FBS)","MIC (L82016 (serotype 6B), 5% FBS)","MIC (P9 (serotype 6A), 5% FBS)","MIC (P21 (serotype 3), 5% FBS)","MIC50 (S1 Table isolates, 5% FBS)","MIC90 (S1 Table isolates, 5% FBS)","MIC (TIGR4 (serotype 4), 5% FBS)","MIC (WCH16 (serotype 6A), 5% FBS)","MIC (WCH43 (serotype 4), 5% FBS)","MIC (WCH46 (serotype 4), 5% FBS)","MIC (WCH57 (serotype 8), 5% FBS)","MIC (WCH77 (serotype 5), 5% FBS)","MIC (WCH86 (serotype 4), 5% FBS)","MIC (WCH89 (serotype 7), 5% FBS)","MIC (WCH92 (serotype 4), 5% FBS)",further results
CC1(C)S[C@@H]2[C@H](NC(=O)[C@H](N)c3ccccc3)C(=O)N2[C@H]1C(=O)O [Ampicillin],0.06 to 1 µg/mL,0.5 µg/mL,0.125 µg/mL,0.125 µg/mL,0.125 µg/mL,0.5 µg/mL,0.06 µg/mL,0.06 µg/mL,0.06 µg/mL,0.125 µg/mL,0.5 µg/mL,0.125 µg/mL,1 µg/mL,0.125 µg/mL,0.125 µg/mL,0.5 µg/mL,0.5 µg/mL,0.06 µg/mL,0.125 µg/mL,0.5 µg/mL,"MIC (WCH137 (serotype 6A), 5% FBS): 0.06 µg/mL; MIC (WCH158 (serotype 19F), 5% FBS): 0.125 µg/mL; MIC (WCH184 (serotype 19F), 5% FBS): 0.125 µg/mL; MIC (WCH211 (serotype 11), 5% FBS): 0.125 µg/mL; MIC (WU2 (serotype 3), 5% FBS): 0.125 µg/mL"
"CCCCCCCCCC(=O)N[C@@H](Cc1c[nH]c2ccccc12)C(=O)N[C@H](CC(N)=O)C(=O)N[C@@H](CC(=O)O)C(=O)N[C@@H]1C(=O)NCC(=O)N[C@@H](CCCN)C(=O)N[C@@H](CC(=O)O)C(=O)N[C@H](C)C(=O)N[C@@H](CC(=O)O)C(=O)NCC(=O)N[C@H](CO)C(=O)N[C@@H]([C@H](C)CC(=O)O)C(=O)N[C@@H](CC(=O)c2ccccc2N)C(=O)O[C@@H]1C [Daptomycin, daptomycin]",0.125 to 0.5 µg/mL,0.5 µg/mL,0.25 µg/mL,0.25 µg/mL,0.25 µg/mL,0.25 µg/mL,0.25 µg/mL,0.25 µg/mL,0.25 µg/mL,0.25 µg/mL,0.25 µg/mL,0.25 µg/mL,0.25 µg/mL,0.25 µg/mL,0.125 µg/mL,0.25 µg/mL,0.5 µg/mL,0.125 µg/mL,0.5 µg/mL,0.125 µg/mL,"MIC (D39/D39LUX (serotype 2), 10% FBS): 0.25 µg/mL; MIC (WCH137 (serotype 6A), 5% FBS): 0.125 µg/mL; MIC (WCH158 (serotype 19F), 5% FBS): 0.125 µg/mL; MIC (WCH184 (serotype 19F), 5% FBS): 0.25 µg/mL; MIC (WCH211 (serotype 11), 5% FBS): 0.25 µg/mL; MIC (WU2 (serotype 3), 5% FBS): 0.125 µg/mL"
